According to patent US20050048088A1, “Compositions comprising at least two nanoemulsions” (priority 2003, published 2005):

Assay: Recrystallization of CoQ10 from warm oil/alcohol solution on cooling to room temperature
Format: physicochemical
Conditions: cooled to room temperature (25° C.)
Experimental: (§1) 30 g of lecithin were dissolved in 100 g of alcohol and added with stirring to 520 g of water and 200 g of glycerin. 10 g of Coenzyme Q10 (ubichinone) [CoQ10] were dissolved at 40° C. in 40 g of vegetable oil and 100 g of alcohol (ethanol). […] Therefore, the CoQ10 solution, having a temperature of 40° C., was added to the lecithin/alcohol/glycerin/water mixture and then homogenized six times at 1200 bar (1.2·10^8 Pa) using a high pressure homgenizer of Microfluidics Corp (MT 110®), Thereby, the alcohol was homogeneously distributed in the nanoemulsion. An orange transparent nanoemulsion was obtained.
as §1, with “50 g” for “30 g”, “to 430” for “to 520”, “glycerin. 80” for “glycerin. 10”, “at 45°” for “at 40°”, “pressure homogenizer” for “pressure homgenizer”, “(MT 110®).” for “(MT 110®),”

## COC1=C(OC)C(=O)C(C/C=C(\C)CC/C=C(\C)CC/C=C(\C)CC/C=C(\C)CC/C=C(\C)CC/C=C(\C)CC/C=C(\C)CC/C=C(\C)CC/C=C(\C)CCC=C(C)C)=C(C)C1=O [CoQ10, Coenzyme Q10]
10 g CoQ10 dissolved at 40° C. in 40 g vegetable oil and 100 g alcohol
  behaviour of CoQ10 solution on cooling: most of the CoQ10 recrystallizes out from the solution after some hours
80 g CoQ10 dissolved at 45° C. in 40 g vegetable oil and 100 g alcohol
  behaviour of CoQ10 solution on cooling: most of the CoQ10 recrystallized out from the solution after some hours
